As usually defined, the EC50 is the concentration giving half of the maximal effect.

Each structure is given as a SMILES string.

The subject of one experiment is HBV rcDNA. Kind of experiment: HepDE19 assay with bDNA quantitation of HBV rcDNA. The class given is cell-based, hepatitis B virus. Conditions: HepDE19 assay, inhibition of formation of relaxed circular DNA (rcDNA), bDNA quantitation; read-out: DE-19bDNA EC50. In short, it runs like this: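 Compounds, top concentration 25 μM in 8-point duplicate series, were applied to Tet-free HepDE19 cultures for 7 days. Branched-DNA quantitation of HBV rcDNA against untreated wells gave EC50 and EC90 by 4-parameter fit. Viability (CC50) came from ATP luminescence on parallel plates incubated 4 days.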
In the case of `CC(c1c[nH]c(=O)c2cc(F)c(F)cc12)N(C)C(=O)NCc1ccc(F)c(F)c1` (single isomer, unassigned) [Compound 477, 1-(1-(6,7-Difluoro-1-oxo-1,2-dihydroisoquinolin-4-yl)ethyl)-3-(3,4-difluorobenzyl)-1-methylurea], the EC50 was determined as 10 µM.

Turning to `CC(c1c[nH]c(=O)c2cc(F)c(F)cc12)N(C)C(=O)NCc1cc(F)c(F)c(F)c1` (single isomer, unassigned) [Compound 481, 1-(1-(6,7-Difluoro-1-oxo-1,2-dihydroisoquinolin-4-yl)ethyl)-1-methyl-3-(3,4,5-trifluorobenzyl)urea], the concentration for a half-maximal effect (EC50) turned out to be 0.53 µM.

For `CC(c1c[nH]c(=O)c2cc(F)c(F)cc12)N(C)C(=O)NCc1cc(F)c(F)c(F)c1` (single isomer, unassigned) [Compound 482, 1-(1-(6,7-Difluoro-1-oxo-1,2-dihydroisoquinolin-4-yl)ethyl)-1-methyl-3-(3,4,5-trifluorobenzyl)urea], the EC50 came out at 11 µM.

Consider `CC(c1c[nH]c(=O)c2cc(F)c(F)cc12)N(C)C(=O)NCc1ccc(F)c(Cl)c1` (single isomer, unassigned) [Compound 483, 3-(3-Chloro-4-fluorobenzyl)-1-(1-(6,7-difluoro-1-oxo-1,2-dihydroisoquinolin-4-yl)ethyl)-1-methylurea], for which the EC50 was 0.27 µM.

Turning to `CC(c1c[nH]c(=O)c2cc(F)c(F)cc12)N(C)C(=O)NCc1ccc(F)c(Cl)c1` (single isomer, unassigned) [Compound 484, 3-(3-Chloro-4-fluorobenzyl)-1-(1-(6,7-difluoro-1-oxo-1,2-dihydroisoquinolin-4-yl)ethyl)-1-methylurea], the EC50 was found to be 14 µM.

`CC(c1c[nH]c(=O)c2cc(F)c(F)cc12)N(C)C(=O)Nc1ccc2cc[nH]c2c1` (single isomer, unassigned) [Compound 485, 1-(1-(6,7-Difluoro-1-oxo-1,2-dihydroisoquinolin-4-yl)ethyl)-3-(1H-indol-6-yl)-1-methylurea]: the EC50 came to 9.9 µM.

With `CC(c1c[nH]c(=O)c2cc(F)c(F)cc12)N(C)C(=O)Nc1ccc2cc[nH]c2c1` (single isomer, unassigned) [Compound 486, 1-(1-(6,7-Difluoro-1-oxo-1,2-dihydroisoquinolin-4-yl)ethyl)-3-(1H-indol-6-yl)-1-methylurea], the EC50 was determined as 0.2 µM.

As for `CC(c1c[nH]c(=O)c2c(F)c(F)ccc12)N(C)C(=O)NCc1ccc(F)c(F)c1` (single isomer, unassigned) [Compound 489, 1-(1-(7,8-Difluoro-1-oxo-1,2-dihydroisoquinolin-4-yl)ethyl)-3-(3,4-difluorobenzyl)-1-methylurea], the 50% effective concentration (EC50) was 19 µM.

In the case of `CC(c1c[nH]c(=O)c2c(F)c(F)ccc12)N(C)C(=O)NCc1ccc(F)c(F)c1` (single isomer, unassigned) [Compound 490, 1-(1-(7,8-Difluoro-1-oxo-1,2-dihydroisoquinolin-4-yl)ethyl)-3-(3,4-difluorobenzyl)-1-methylurea], the EC50 is 0.78 µM.

As for `CC(c1c[nH]c(=O)c2c(F)c(F)ccc12)N(C)C(=O)NCc1ccc(F)cc1` (single isomer, unassigned) [Compound 491, 1-(1-(7,8-Difluoro-1-oxo-1,2-dihydroisoquinolin-4-yl)ethyl)-3-(4-fluorobenzyl)-1-methylurea], the EC50 was 21 µM.

Turning to `CC(c1c[nH]c(=O)c2c(F)c(F)ccc12)N(C)C(=O)NCc1ccc(F)cc1` (single isomer, unassigned) [Compound 492, 1-(1-(7,8-Difluoro-1-oxo-1,2-dihydroisoquinolin-4-yl)ethyl)-3-(4-fluorobenzyl)-1-methylurea], the EC50 amounted to 0.84 µM.

Take `CC(c1c[nH]c(=O)c2c(F)c(F)ccc12)N(C)C(=O)NCc1cc(F)c(F)c(F)c1` (single isomer, unassigned) [Compound 493, 1-(1-(7,8-Difluoro-1-oxo-1,2-dihydroisoquinolin-4-yl)ethyl)-1-methyl-3-(3,4,5-trifluorobenzyl)urea]: the EC50 is 15 µM.

Take `CC(c1c[nH]c(=O)c2c(F)c(F)ccc12)N(C)C(=O)NCc1cc(F)c(F)c(F)c1` (single isomer, unassigned) [Compound 494, 1-(1-(7,8-Difluoro-1-oxo-1,2-dihydroisoquinolin-4-yl)ethyl)-1-methyl-3-(3,4,5-trifluorobenzyl)urea]: the EC50 was found to be 0.89 µM.

For the compound `CC(c1c[nH]c(=O)c2c(F)c(F)ccc12)N(C)C(=O)NCc1ccc(F)c(Cl)c1` (single isomer, unassigned) [Compound 496, 3-(3-Chloro-4-fluorobenzyl)-1-(1-(7,8-difluoro-1-oxo-1,2-dihydroisoquinolin-4-yl)ethyl)-1-methylurea], the EC50 was found to be 7.7 µM.

`CC(c1c[nH]c(=O)c2c(F)c(F)ccc12)N(C)C(=O)NCc1ccc(F)c(Cl)c1` (single isomer, unassigned) [Compound 497, 3-(3-Chloro-4-fluorobenzyl)-1-(1-(7,8-difluoro-1-oxo-1,2-dihydroisoquinolin-4-yl)ethyl)-1-methylurea]: the EC50 worked out at 0.26 µM.

Regarding `CC(c1c[nH]c(=O)c2c(F)c(F)ccc12)N(C)C(=O)Nc1ccc2cc[nH]c2c1` (single isomer, unassigned) [Compound 498, 1-(1-(7,8-Difluoro-1-oxo-1,2-dihydroisoquinolin-4-yl)ethyl)-3-(1H-indol-6-yl)-1-methylurea], the EC50 worked out at 11 µM.

With `CC(c1c[nH]c(=O)c2c(F)c(F)ccc12)N(C)C(=O)Nc1ccc2cc[nH]c2c1` (single isomer, unassigned) [Compound 499, 1-(1-(7,8-Difluoro-1-oxo-1,2-dihydroisoquinolin-4-yl)ethyl)-3-(1H-indol-6-yl)-1-methylurea], the concentration for a half-maximal effect (EC50) was found to be 0.3 µM.

As for `CC(c1c[nH]c(=O)c2cc(F)c(F)cc12)N(C)C(=O)Nc1ccc(F)c(C(F)F)c1` (single isomer, unassigned) [Compound 501, 1-(1-(6,7-Difluoro-1-oxo-1,2-dihydroisoquinolin-4-yl)ethyl)-3-(3-(difluoromethyl)-4-fluorophenyl)-1-methylurea], the EC50 worked out at 0.73 µM.

For `CC(c1c[nH]c(=O)c2cc(F)c(F)cc12)N(C)C(=O)Nc1ccc(F)c(C(F)F)c1` (single isomer, unassigned) [Compound 502, 1-(1-(6,7-Difluoro-1-oxo-1,2-dihydroisoquinolin-4-yl)ethyl)-3-(3-(difluoromethyl)-4-fluorophenyl)-1-methylurea], the EC50 is 0.017 µM.

For `CC(c1c[nH]c(=O)c2c(F)c(F)ccc12)N(C)C(=O)Nc1ccc(F)c(C(F)F)c1` (single isomer, unassigned) [Compound 503, 1-(1-(7,8-Difluoro-1-oxo-1,2-dihydroisoquinolin-4-yl)ethyl)-3-(3-(difluoromethyl)-4-fluorophenyl)-1-methylurea], the EC50 amounted to 0.86 µM.

As to `CC(c1c[nH]c(=O)c2c(F)c(F)ccc12)N(C)C(=O)Nc1ccc(F)c(C(F)F)c1` (single isomer, unassigned) [Compound 504, 1-(1-(7,8-Difluoro-1-oxo-1,2-dihydroisoquinolin-4-yl)ethyl)-3-(3-(difluoromethyl)-4-fluorophenyl)-1-methylurea], the EC50 amounted to 0.015 µM.

The experiment is the same for the next values; noted with them: Hepatitis B virus, HepDE19, HepDE19 assay, inhibition of formation of rcDNA; read-out: DE-19bDNA EC50.
Consider `CN(Cc1c[nH]c(=O)c2ccccc12)C(=O)Nc1ccc(F)c(Cl)c1` [Compound 1, 3-(3-Chloro-4-fluorophenyl)-1-methyl-1-((1-oxo-1,2-dihydroisoquinolin-4-yl)methyl)urea], for which the EC50 turned out to be 0.47 µM.

On to `COc1ncc(CN(C)C(=O)Nc2ccc(F)c(Cl)c2)c2ccccc12` [Compound 2, 3-(3-Chloro-4-fluorophenyl)-1-((1-methoxyisoquinolin-4-yl)methyl)-1-methylurea], for which the EC50 was 2 µM.

Regarding `COc1ncc(CN(C)C(=O)Nc2ccc(F)c(C)c2)c2ccccc12` [Compound 3, 3-(4-Fluoro-3-methylphenyl)-1-((1-methoxyisoquinolin-4-yl)methyl)-1-methylurea], the EC50 amounted to 1.1 µM.

`Cc1cc(NC(=O)NCc2c[nH]c(=O)c3ccccc23)ccc1F` [Compound 4, 1-(4-Fluoro-3-methylphenyl)-3-((1-oxo-1,2-dihydroisoquinolin-4-yl)methyl)urea]: the EC50 worked out at 4.8 µM.

For `Cc1cc(NC(=O)N(C)Cc2c[nH]c(=O)c3ccccc23)ccc1F` [Compound 5, 3-(4-Fluoro-3-methylphenyl)-1-methyl-1-((1-oxo-1,2-dihydroisoquinolin-4-yl)methyl)urea], the EC50 was 0.49 µM.

The same experiment, now with this note: Hepatitis B virus, HepDE19, HepDE19 assay, inhibition of formation of relaxed circular DNA (rcDNA), bDNA quantitation; read-out: DE-19bDNA EC50.
Take `CC(c1c[nH]c(=O)c2cc(F)c(F)cc12)N(C)C(=O)NCc1ccc(F)cc1` (single isomer, unassigned) [Compound 478, 1-(1-(6,7-Difluoro-1-oxo-1,2-dihydroisoquinolin-4-yl)ethyl)-3-(4-fluorobenzyl)-1-methylurea]: the EC50 came out at 1 µM.

Still in this experiment, the particulars now being: Hepatitis B virus, HepDE19, read-out: DE-19bDNA EC50 (μM), HepDE19 assay, inhibition of formation of relaxed circular DNA (rcDNA), bDNA quantitation.
`CC(c1c[nH]c(=O)c2cc(F)c(F)cc12)N(C)C(=O)N[C@H](C)c1ccccc1` (single isomer, unassigned) [Compound 479]: the EC50 was determined as 9.4 µM.

Take `CC(c1c[nH]c(=O)c2c(F)c(F)ccc12)N(C)C(=O)N[C@@H](C)c1ccccc1` (single isomer, unassigned) [Compound 487]: the concentration giving a half-maximal response (EC50) came to 23 µM.

For `CC(c1c[nH]c(=O)c2c(F)c(F)ccc12)N(C)C(=O)N[C@H](C)c1ccccc1` (single isomer, unassigned) [Compound 488], the EC50 came to 9 µM.

For `CC(NC(=O)Nc1ccc(F)c(Cl)c1)c1c[nH]c(=O)c2c(F)c(F)ccc12` (single isomer, unassigned) [Compound 500, 1-(3-Chloro-4-fluorophenyl)-3-(1-(7,8-difluoro-1-oxo-1,2-dihydroisoquinolin-4-yl)ethyl)urea], the EC50 was determined as 3 µM.

The record behind these values is patent US20230045421A1 (priority 2018, published 2023).
